# *1 amine or outer side, *2 acyl side, *3 side chain or, on linkers, in order; H or OH if unused. Where a SMILES comes first, the peptide text is derived from it. Bridges are numbered along the chain shown (N, C = ends). [ ]: non-standard residue; d: D form. X1 = O=C(COc1ccc2[nH]cc(CCN[*:1])c2c1)[*:2]; Nle = CCCC[C@H](N)C(=O)O
# Assays:
# hypothalamic slices = hypothalamic slices in vitro; cited from earlier work
# [1] = system: C57BL/6J male mice or DIO (diet-induced obese) male mice; assay: In Vivo Reduction of Food Intake Assay; design: species or system mouse
# Experimental: In this Example, compounds of Examples 5, 44, 73 and 74 were administered to four sets of mice in four separate experiments to measure effect on food intake. C57BL/6J male mice or DIO (diet-induced obese) male mice were used in the experiments, with eight mice per experimental group. The mice were maintained on a regular light cycle (6 AM—ON; 6 PM—OFF). The mice were fasted for 24 hours prior to testing with ad lib access to water. During the test, mice were housed one per cage.
# The compounds of Examples 5 and 44 were administered intraperitoneally; and the compounds of Examples 73 and 74 were administered subcutaneously. In each Figure, cumulative and time interval food consumptions were measured in individual mice. Mean food consumption and percent change from vehicle were calculated for each time interval. Data was analyzed by using two-tailed Student t-test.
# Y1R = target: T1, Y1R (Homo sapiens, UniProt P25929); assay: FLIPR assay, Y1R; format: cell-based
# T1 sequence (P25929 1-384): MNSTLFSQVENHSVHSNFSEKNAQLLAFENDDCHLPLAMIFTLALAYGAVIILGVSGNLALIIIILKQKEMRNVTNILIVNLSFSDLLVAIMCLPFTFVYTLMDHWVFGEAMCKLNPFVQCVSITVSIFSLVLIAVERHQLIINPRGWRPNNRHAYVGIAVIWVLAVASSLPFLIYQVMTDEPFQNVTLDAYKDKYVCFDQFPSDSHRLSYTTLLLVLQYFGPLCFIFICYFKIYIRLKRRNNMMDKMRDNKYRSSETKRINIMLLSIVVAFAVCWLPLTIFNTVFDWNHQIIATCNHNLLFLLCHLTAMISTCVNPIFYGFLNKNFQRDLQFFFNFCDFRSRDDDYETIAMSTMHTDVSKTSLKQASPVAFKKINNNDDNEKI
# Experimental: (§1) Loading Buffer (Calcium-3 Assay Kit, Molecular Devices) was prepared by dissolving the contents of one vial (Express Kit) into 1000 ml Hank's Balanced Salt Solution containing 20 mM HEPES and 5 mM probenecid. Aliquots of 25 μL of diluted dye was dispensed into the cell plates and the plates are then incubated for 1 hour at 37° C.
# (§2) During the incubation, test compounds were prepared at 3.5× the desired concentration in HBSS (20 mM HEPES)/0.05% BSA/1% DMSO and transferred to a 384 well plate for use on FLIPR.
# (§3) After incubation, both the cell and compound plates were brought to the FLIPR and 20 μL of the diluted compounds were transferred to the cell plates by the FLIPR. During the assay, fluorescence readings were taken simultaneously from all 384 wells of the cell plate every 1.5 seconds. Five readings were taken to establish a stable baseline, and then 20 μL of sample was rapidly (30 μL/sec) and simultaneously added to each well of the cell plate. The fluorescence was continuously monitored before, during and after sample addition for a total elapsed time of 100 seconds. Responses (increase in peak fluorescence) in each well following addition was determined. The initial fluorescence reading from each well, prior to ligand stimulation, was used as a zero baseline value for the data from that well. The responses are expressed as % of maximal response of the positive control.
# Y4R = Y4R (Homo sapiens, UniProt P50391); assay: FLIPR assay, Y4R; format: cell-based
# Chain of Y4R (P50391 whole entry): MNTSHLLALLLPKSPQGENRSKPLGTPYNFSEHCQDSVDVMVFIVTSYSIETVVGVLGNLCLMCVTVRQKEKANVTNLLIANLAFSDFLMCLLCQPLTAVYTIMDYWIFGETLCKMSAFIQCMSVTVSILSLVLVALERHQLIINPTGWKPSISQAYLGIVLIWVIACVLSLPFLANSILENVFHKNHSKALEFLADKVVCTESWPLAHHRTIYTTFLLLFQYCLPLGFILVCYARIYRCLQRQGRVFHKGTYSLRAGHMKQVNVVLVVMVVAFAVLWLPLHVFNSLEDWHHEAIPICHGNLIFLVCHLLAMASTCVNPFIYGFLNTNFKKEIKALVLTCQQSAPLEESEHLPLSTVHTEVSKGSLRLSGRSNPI
# Experimental: as §1, §2, §3
# [2] = administered intraperitoneally, mice fasted 24 hours, 1, 2, 4, 6 and 24 hours after dosing
# [3] = administered subcutaneously, mice fasted 24 hours, 1, 2, 4, 6, 24 hours and longer intervals
compound,measurement,setting,value
N=C(N)NCCC[C@H](NC(=O)CC1(CC(=O)N2CCN(C3c4ccccc4NC(=O)c4ccccc43)CC2)CCCC1)C(=O)NCCn1c(=O)n(-c2ccccc2)n(-c2ccccc2)c1=O (stereo partly shown) [BIIE0246],NPY release,hypothalamic slices,increases NPY release
H-Ile-Lys-Pqa-Arg-His-Tyr-Leu-Asn-Leu-Val-Thr-Arg-Gln-Arg-Tyr-NH2 [Example 5],reduction of food intake,[1]; [2],reduction of food intake was demonstrated
CCCC[C@H](NC(=O)[C@@H](NC(C)=O)[C@@H](C)CC)C(=O)NCCc1c[nH]c2ccc(OCC(=O)N[C@@H](CCCNC(=N)N)C(=O)N[C@@H](Cc3c[nH]cn3)C(=O)N[C@@H](Cc3ccc(O)cc3)C(=O)N[C@H]3CCCCNC(=O)C[C@@H](C(=O)N[C@@H](CCCNC(=N)N)C(=O)N[C@@H](CCC(N)=O)C(=O)N[C@@H](CCCNC(=N)N)C(=O)N[C@@H](Cc4ccc(O)cc4)C(N)=O)NC(=O)[C@H](C(C)C)NC(=O)[C@H](CC(C)C)NC(=O)[C@H](CC(N)=O)NC3=O)cc12 [Example 53] (Ac-I[Nle][X1]RHYKNLVDRQRY-NH2; lactam 7-11),EC50,Y1R,> 5 µM
same,EC50,Y4R,> 5 µM
Ac-Ile-Nle-Pqa-Arg-His-Tyr-Leu-Asn-Leu-Val-Thr-Arg-Gln-Arg-Tyr-NH2 [Example 44],reduction of food intake,[1]; [2],reduction of food intake was demonstrated
"PEG (10,000)-Ile-Nle-Pqa-Arg-His-Tyr-Leu-Asn-Leu-Val-Thr-Arg-Gln-Arg-Tyr-NH2 [Example 73]",reduction of food intake,[1]; [3],reduction of food intake was demonstrated
"PEG (30,000)-Ile-Nle-Pqa-Arg-His-Tyr-Leu-Asn-Leu-Val-Thr-Arg-Gln-Arg-Tyr-NH2 [Example 74]",reduction of food intake,[1]; [3],reduction of food intake was demonstrated

# Source: US7410949B2, “Neuropeptide-2 receptor (Y-2R) agonists and uses thereof” (Hoffmann-La Roche Inc., priority 2005, dated 2008)
